Assay results from paper PMC8113459, “Selective inhibition of cullin 3 neddylation through covalent targeting DCN1 protects mice from acetaminophen-induced liver toxicity” (Nature Communications, 2021).

Experiments:
NRF2 protein = experiment: Western blot, NRF2 protein accumulation in cells; format: cell-based, human
Experimental: Western blotting was performed as described previously. Treated cells were lysed by RIPA buffer supplemented with protease inhibitor. The expression level of indicated proteins was examined by immunoblotting analysis and GAPDH was used as the loading control. Antibodies were purchased commercially: cullin 1 (sc-17775, 1:500 dilution) and cullin 2 (sc-166506, 1:500 dilution) from Santa Cruz Biotech (Santa Cruz, CA); cullin 4A (PA5-14542, 1:1000 dilution), cullin 4B (PA5-50647, 1:1000 dilution), and DCN3 (DCUN1D3, PA5-44000, 1:1000 dilution) from Thermo Fisher Scientific (Wayne, MI); cullin 3 (2759, 1:1000), NRF2 (12721, 1:1000 dilution), HO-1 (70081, 1:1000 dilution), and Bim (2819, 1:1000 dilution) from Cell Signaling Technology (Boston, MA); DCN1 (GWB-E3D700, 1:1000 dilution) from GenWay Biotech (San Diego, CA); and cullin 5 (A302-173A, 1:500 dilution) from Bethyl Labs (Montgomery, TX). Results are representative of two independent experiments.

DCN1 [1] = molecular target: T1, DCN1 (Homo sapiens, UniProt Q96GG9); experiment: Intact-protein mass spectrometric analysis of covalent complex formation, Method A; format: binding; conditions: for Percentage of the formation of covalent complex with DCN1 protein: 37 °C
Source text: MassHunter Qualitative Analysis software (Agilent) was used to analyze the data. Intact protein masses were obtained using the maximum entropy deconvolution algorithm. The mass spectrometry data in Supplementary Figs. 1–11 were generated by Method A.
Target sequence in this assay (Q96GG9 58-259 limits assumed): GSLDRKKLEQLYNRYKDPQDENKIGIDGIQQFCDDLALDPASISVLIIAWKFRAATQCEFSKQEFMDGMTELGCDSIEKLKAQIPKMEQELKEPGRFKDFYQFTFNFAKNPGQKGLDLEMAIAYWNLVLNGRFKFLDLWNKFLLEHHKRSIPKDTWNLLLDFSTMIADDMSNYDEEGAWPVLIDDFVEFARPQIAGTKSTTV

DCN1 [2] = molecular target: T1, DCN1; experiment: Cocrystal structures of lyso-DCN1-inhibitor complexes; design: to DCN1 residues 62–251; His6 (N); TEV cleavage site (N); lysozyme residues 1–164 with C54T, C97A, A146T, D127A, R154A (fusion partner, N-terminal of DCN1); made in house; host or cells: Rosetta 2 cells (E. coli)
Experimental: Lysozyme–DCN1 gene was synthesized fusing lysozyme residues 1–164, containing mutations (C54T, C97A, A146T, D127A, and R154A), to DCN1 residues 62–251. Ligation independent cloning was utilized to clone the fused gene into an N-terminal His6–TEV expression vector. The clone was transformed into Rosetta 2 cells, grown in terrific broth at 37 °C, and expressed overnight with 0.4 mM isopropyl β-D-1-thiogalactopyranoside at 20 °C. Pelleted cells were freeze-thawed and lysed in 25 mM HEPES, pH 7.5, 150 mM NaCl, 0.1% β-mercaptoethanol and protease inhibitors. Cellular debris was removed via centrifugation. The supernatant was loaded onto a Ni-NTA (Qiagen) column at 4 °C. The column was washed with 25 mM HEPES, pH 7.5, 150 mM NaCl, and 20 mM imidazole, then protein eluted with buffer containing 300 mM imidazole. The eluate was applied to a Superdex 200 (GE Healthcare) equilibrated with 25 mM HEPES, pH 7.5, 200 mM NaCl, and 1 mM DTT. The protein was judged to be greater than 95% pure by SDS-PAGE, concentrated to 3.5 mg/mL and stored at −80 °C. Yield was 450 mg/L of expressed media.
Lyso–DCN1 protein was thawed and concentrated to 9.9 mg/mL in 25 mM HEPES, pH 7.5, 200 mM NaCl, and 1 mM DTT. Each compound was incubated with protein in a 1:1.2 protein to compound molar ratio overnight at 4 °C, then spun and setup in sitting drop vapor diffusion experiments. Crystallization drops contained 2 µL of protein–inhibitor solution and 1 µL of well solution. Crystals grew at 20 °C with well solution containing 28–33% PEG 3350 and 200 mM ammonium formate. Crystals were cryoprotected in 25 mM HEPES, pH 7.5, 200 mM NaCl, 30% PEG 3350, and 1 mM DTT.
Diffraction data were collected at a wavelength of 0.9786 Å on the APS LS-CAT 21-ID-G beamline at Argonne National Laboratory. Data were processed using HKL2000[44] and solved via molecular replacement using molrep[45] with two independent search models (lysozyme and DCN1) from PDB ID 5V83. The structures were iteratively fit and refined using Coot[46] and Buster[47]. […]
Target sequence in this assay (Q96GG9 62-251): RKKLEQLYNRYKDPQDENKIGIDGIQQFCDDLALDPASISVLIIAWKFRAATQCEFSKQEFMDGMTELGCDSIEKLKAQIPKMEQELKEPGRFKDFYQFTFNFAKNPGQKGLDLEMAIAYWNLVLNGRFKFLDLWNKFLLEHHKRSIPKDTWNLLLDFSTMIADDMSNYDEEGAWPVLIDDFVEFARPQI

[3] = 10 min incubation, 1.2-fold excess inhibitor

## C=C(CN1CCOCC1)C(=O)NC[C@@H](NC(=O)[C@H](Cc1nc2ccc(C(C)C)cc2s1)NC(=O)CC)C1CCCCC1 [DI-1548]
NRF2 protein
  times more potent than DI-591 in inducing accumulation of NRF2 protein: 100–1000 times
DCN1 [1]
  covalent complex formation / reaction kinetics with DCN1 protein (in words): very fast covalent complex formation
DCN1 [1]; [3]
  Percentage of the formation of covalent complex with DCN1 protein: 100%
DCN1 [1]; 60 min (1 h) incubation
  Percentage of the formation of covalent complex with DCN1 protein: 100%
DCN1 [1]; 180 min (3 h) incubation
  Percentage of the formation of covalent complex with DCN1 protein: 100%
DCN1 [2]
  covalent bond to Cys115 of DCN1 in the cocrystal structure: confirmed the covalent nature of these complexes

## C=C(CN(C)C)C(=O)NC[C@@H](NC(=O)[C@H](Cc1nc2ccc(C(C)C)cc2s1)NC(=O)CC)C1CCCCC1 [DI-1859]
NRF2 protein
  times more potent than DI-591 in inducing accumulation of NRF2 protein: 100–1000 times
DCN1 [1]
  covalent complex formation / reaction kinetics with DCN1 protein (in words): very fast covalent complex formation
DCN1 [1]; [3]
  Percentage of the formation of covalent complex with DCN1 protein: 100%
DCN1 [1]; 60 min (1 h) incubation
  Percentage of the formation of covalent complex with DCN1 protein: 100%
DCN1 [1]; 180 min (3 h) incubation
  Percentage of the formation of covalent complex with DCN1 protein: 100%
DCN1 [2]
  covalent bond to Cys115 of DCN1 in the cocrystal structure: confirmed the covalent nature of these complexes
